Columns and labels:
[1] = test system: gastric emptying and intestinal motility; conditions: rat, ref AZD5069 Investigator Brochure (IB), cited from earlier work
CYP2C9 = test system: CYP2C9; parameters: method as in AZD5069 Investigator Brochure (IB); conditions: ref AZD5069 Investigator Brochure (IB); cited from earlier work
[2] = parameters: method as in AZD5069 Investigator Brochure (IB); conditions: human mass balance study NCT01332903; ref AZD5069 Investigator Brochure (IB); cited from earlier work
[3] = test system: AR activity and AR-V7 signatures; test: RNA profiling (HTG EdgeSeq) of paired FFPE tumour biopsies: AR activity and AR-V7 signatures; type: in vivo, human; conditions: paired biopsies with decreased myeloid cell density (seven pairs)
Experimental: RNA profiling of FFPE tumour biopsies collected before and after starting AZD5069 was carried out by HTG EdgeSeq (HTG Molecular Diagnostics) using the HTG human transcriptome panel containing 19,616 nuclease protection probes (NPPs), including 19,398 gene target-specific 50-nucleotide probes, 100 negative control probes, 92 probes for RNA controls established by the External RNA Control Consortium, 22 probes that measure gDNA and 4 positive control probes. The assay was carried out with a minimum of 11 mm^2 of FFPE tumour micro-dissected sections. The sections were lysed according to the manufacturer’s instructions, and added to a 96-well plate on the HTG EdgeSeq Processor (HTG Molecular Diagnostics) on which a quantitative nuclease protection assay was carried out. The addition of DNA nuclease protection probes (NPPs) was automated and they were allowed to hybridize for 16 hours to the target mRNAs. The excess non-hybridized DNA probes and non-hybridized mRNA were removed by S1 digestion leaving only NPPs hybridized to mRNA. […] After clean-up and quantification by quantitative PCR using the kit KAPA Library Quantification Kit Illumina platforms, the libraries were pooled and sequenced on the NextSeq 500 using a High Throughput 75-cycle v.2.5 kit (Illumina). […] Data were analysed using the HTG EdgeSeq Reveal analysis software. […]

P-glycoprotein (P-gp) = test system: P-glycoprotein (P-gp); parameters: method as in AZD5069 Investigator Brochure (IB); conditions: at concentrations of up to 100 μmol/L; ref AZD5069 Investigator Brochure (IB); cited from earlier work

C[C@@H](Oc1cc(NS(=O)(=O)N2CCC2)nc(SCc2cccc(F)c2F)n1)[C@@H](O)CO [AZD5069]
No Observed Effect Level (NOEL) ([1]; gastric emptying and intestinal motility): 60 mg/kg
dose level with inhibition of gastric emptying and intestinal motility [1]: 350 mg/kg
IC50 (CYP2C9): ~53.8 µM
phase II glucose conjugate metabolite in urine [2]: < 5.3 % of dose
AR activity and AR-V7 mRNA signatures in tumour biopsies [3]: downregulation of AR activity and AR-V7 signatures
inhibition of P-glycoprotein (P-gp) (P-glycoprotein (P-gp)): not an inhibitor
